19 compounds from PubChem BioAssay (NCI) can be followed below.

Some test systems named below: CAKI-1 renal; COLO 205 colon; K-562 leukemia; MDA-MB-231 breast; NCI-H226 lung; OVCAR-4 ovarian; RPMI-8226 leukemia; SR leukemia; TK-10 renal; UO-31 renal.
Holding throughout (assay): NCI-60 cell line screen, 48 h

Where “and” joins values, the source holds several entries; their conditions need not be identical. Equal entries are not always repeated.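 Compound exposure: 48 hours, 5 concentrations, 96-well plates. The concentration for 50% growth inhibition is given as GI50. TGI: total growth inhibition.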

For the compound `COc1ccccc1C1CC(=O)CC(c2ccccc2OC)C12C(=O)NC(=S)NC2=O` (stereo not given), the TGI in the test with CAKI-1 renal, with COLO 205 colon, in the test on K-562 leukemia, with MDA-MB-231 breast, with NCI-H226 lung and in the test on OVCAR-4 ovarian was over 100 µM throughout. The TGI was 52.7 µM in the test with RPMI-8226 leukemia, over 100 µM with SR leukemia, over 100 µM in the test with TK-10 renal and over 100 µM with UO-31 renal.
`NC(=O)C(Nc1c(Cl)cccc1Cl)c1cc2cc(Br)ccc2nc1Cl` (stereo not given): the TGI with CAKI-1 renal, with COLO 205 colon, in the test on K-562 leukemia, with MDA-MB-231 breast, with NCI-H226 lung and in the test with OVCAR-4 ovarian was over 100 µM each time. For the same compound, the TGI with RPMI-8226 leukemia was over 100 µM; in the test with SR leukemia it was 56.5 µM; in the test on TK-10 renal it was 96.3 µM; in the test with UO-31 renal, over 100 µM.
For `COc1ccc(/C=C2/C(C)=NN(c3cccc(Cl)c3)/C2=N/c2nc3ccccc3s2)cc1`, the TGI is 86.6 µM in the test on CAKI-1 renal; over 100 µM in the test on K-562 leukemia; 67.5 µM with MDA-MB-231 breast; 56.4 µM with NCI-H226 lung; over 100 µM with OVCAR-4 ovarian; 66.6 µM with RPMI-8226 leukemia. For the same compound, the figures for the TGI in the test with SR leukemia, in the test with TK-10 renal and in the test on UO-31 renal were 62.6 µM, 68.8 µM and 44.1 µM, respectively.
Turning to `COc1cc(OCc2ccc3nc(-c4ccccc4)c(N)nc3c2)cc(OC)c1OC`, the TGI with CAKI-1 renal was 71.4 µM; with COLO 205 colon it was 30.1 µM; with K-562 leukemia it was over 100 µM; in the test on MDA-MB-231 breast, 68.9 µM; in the test on NCI-H226 lung it was 50.4 µM; in the test on OVCAR-4 ovarian, 34.6 µM. The TGI in the test on RPMI-8226 leukemia turned out to be 31.3 µM; with SR leukemia, 43.8 µM; with TK-10 renal, 50.3 µM; with UO-31 renal it was 34.6 µM.
In the case of `Oc1ccccc1/C=N/Nc1nnc2c3ccccc3c3ccccc3c2n1`, the TGI in the test on CAKI-1 renal, with COLO 205 colon, in the test with K-562 leukemia, in the test on MDA-MB-231 breast, in the test on NCI-H226 lung and in the test on OVCAR-4 ovarian was over 100 µM in each case. The TGI in the test on RPMI-8226 leukemia, with SR leukemia, with TK-10 renal and with UO-31 renal was over 100 µM throughout.
Turning to `C/C(=N\N)C(CN(C)C)C(c1ccccc1)c1c(O)c2ccccc2oc1=O` (stereo not given), the TGI in the test with CAKI-1 renal, in the test with COLO 205 colon, in the test with K-562 leukemia, with MDA-MB-231 breast, in the test with NCI-H226 lung and in the test with OVCAR-4 ovarian was over 100 µM each time. The TGI in the test on RPMI-8226 leukemia, in the test with SR leukemia, in the test with TK-10 renal and in the test on UO-31 renal was over 100 µM in each case.
`COc1ccc(Br)c2c1CC(C(=O)O)CC2` (stereo not given): the TGI in the test on CAKI-1 renal, with COLO 205 colon, in the test on K-562 leukemia, in the test with MDA-MB-231 breast, in the test on NCI-H226 lung and with OVCAR-4 ovarian was over 100 µM throughout. Besides, the TGI with RPMI-8226 leukemia, with SR leukemia, in the test with TK-10 renal and in the test with UO-31 renal was over 100 µM each time.
Consider `CCCCCC(=O)Nc1n[nH]nc1C(N)=O`, for which the TGI in the test with CAKI-1 renal, in the test with COLO 205 colon, in the test with K-562 leukemia, in the test with MDA-MB-231 breast, with NCI-H226 lung and in the test with OVCAR-4 ovarian was over 100 µM each time. Besides, the TGI with RPMI-8226 leukemia, in the test on SR leukemia, in the test on TK-10 renal and in the test with UO-31 renal was over 100 µM each time.
In the case of `C[C@@]12C=CC3C/C(=N\C(N)=S)C=C(CCCC4OCCO4)[C@]3(CC1)C2` (stereo not given in full), the TGI is 69.9 µM with CAKI-1 renal; 26 µM in the test on COLO 205 colon; over 100 µM with K-562 leukemia; 43.1 µM with MDA-MB-231 breast; 55 µM with NCI-H226 lung; 99.2 µM with OVCAR-4 ovarian. Besides, the TGI in the test on RPMI-8226 leukemia came to 50.8 µM; in the test on SR leukemia, 60.7 µM; with TK-10 renal, 49.4 µM; in the test with UO-31 renal, 38.9 µM.
For `CC1=NC(=O)C(C)(c2ccccc2)N1CCc1ccccc1` (stereo not given), the TGI in the test on CAKI-1 renal, in the test on COLO 205 colon, with K-562 leukemia, in the test with MDA-MB-231 breast, in the test on NCI-H226 lung and in the test with OVCAR-4 ovarian was over 100 µM in each case. Also, the TGI with RPMI-8226 leukemia, in the test with SR leukemia, with TK-10 renal and with UO-31 renal was over 100 µM throughout.
In the case of `O=S1(=O)c2cnccc2NC(=NCc2cccc3ccccc23)N1c1ccccc1`, the TGI with CAKI-1 renal, in the test on COLO 205 colon, in the test on K-562 leukemia, in the test with MDA-MB-231 breast, with NCI-H226 lung and with OVCAR-4 ovarian was over 100 µM each time. In addition, the TGI in the test on RPMI-8226 leukemia is over 76.6 µM; in the test with SR leukemia it was over 100 µM; in the test on TK-10 renal it was over 100 µM; in the test on UO-31 renal, over 100 µM.
Consider `C=C1C(=O)C([Si](C)(C)C)=C2C=C(C)C3(CC3)C12C` (stereo not given), for which the TGI with CAKI-1 renal was over 100 µM; in the test with COLO 205 colon, 36.4 µM; in the test on K-562 leukemia it was 54.1 µM; with MDA-MB-231 breast, 84.6 µM; in the test with NCI-H226 lung it was over 100 µM; in the test on OVCAR-4 ovarian it was over 100 µM. Also, the TGI is 15.3 µM with RPMI-8226 leukemia, 11.7 µM with SR leukemia, over 100 µM in the test on TK-10 renal and over 100 µM in the test on UO-31 renal.
As for `Cc1c2ccncc2cc2c1sc1ccncc12`, the TGI in the test with CAKI-1 renal amounted to 12.5 µM; in the test on COLO 205 colon it was 12.1 µM; with K-562 leukemia, 21.5 µM; in the test on MDA-MB-231 breast, 21.9 µM; in the test on NCI-H226 lung, 5.18 µM; in the test with OVCAR-4 ovarian it was 25.2 µM. Also, the TGI was found to be 7.49 µM in the test with RPMI-8226 leukemia, 1.67 µM with SR leukemia, 36 µM in the test with TK-10 renal and 8.04 µM with UO-31 renal.
Take `Cc1ccc(NCC2CC/C(=C\c3ccc(Cl)cc3)C2=O)cc1` (stereo not given): the TGI with CAKI-1 renal is 21.7 µM; in the test on COLO 205 colon, 34.2 µM; in the test with K-562 leukemia, over 19.8 µM; in the test with MDA-MB-231 breast it was 28.4 µM; with NCI-H226 lung, over 100 µM; in the test with OVCAR-4 ovarian, over 80.7 µM. Also, the TGI was 6.96 µM with RPMI-8226 leukemia, over 24 µM in the test on SR leukemia, 40.6 µM in the test on TK-10 renal and 60 µM in the test on UO-31 renal.
As for `COc1cc2cc(C(=O)N3CC(CCl)c4c3cc(NC(=O)C(C)(C)c3ccccc3[N+](=O)[O-])c3ccccc43)[nH]c2c(OC)c1OC` (stereo not given), the GI50 is 78.5 µM with CAKI-1 renal; 204 µM with COLO 205 colon; 17.9 µM with K-562 leukemia; over 600 µM in the test with MDA-MB-231 breast; 118 µM in the test with NCI-H226 lung; 62.1 µM in the test with OVCAR-4 ovarian. In addition, the results for the GI50 with TK-10 renal and in the test with UO-31 renal were 18.3 µM and 26.2 µM, respectively. Also, the TGI is 50 µM and 281 µM in the test with NCI-H226 lung; over 600 µM in the test on RPMI-8226 leukemia; over 600 µM with SR leukemia.
As for `CCOC(=O)c1nc2ccc(C(F)(F)F)cc2nc1NCc1ccc(Cl)c(Cl)c1`, the TGI with CAKI-1 renal is 57.5 µM; in the test on COLO 205 colon, over 100 µM; with K-562 leukemia, over 100 µM; in the test with MDA-MB-231 breast it was over 100 µM; in the test with NCI-H226 lung, over 100 µM; in the test with OVCAR-4 ovarian it was 48.6 µM. Further, the TGI in the test with RPMI-8226 leukemia, in the test on SR leukemia, in the test on TK-10 renal and in the test on UO-31 renal was over 100 µM in each case.
`c1csc(-c2cscc2-c2ccsc2)c1`: the TGI with CAKI-1 renal is over 100 µM; in the test with COLO 205 colon, over 100 µM; with K-562 leukemia, over 100 µM; in the test on MDA-MB-231 breast, over 100 µM; in the test on NCI-H226 lung, over 78.9 µM; with OVCAR-4 ovarian, over 100 µM. In addition, the TGI is over 100 µM in the test with RPMI-8226 leukemia, over 95.9 µM in the test with SR leukemia, over 100 µM with TK-10 renal and over 100 µM in the test with UO-31 renal.
Turning to `Cc1nc2sc(CCl)nn2c(=O)c1Cl`, the TGI in the test with CAKI-1 renal was found to be 24.8 µM; in the test on COLO 205 colon it was 32.2 µM; with K-562 leukemia, 28.1 µM; in the test on MDA-MB-231 breast, 36.4 µM; in the test on NCI-H226 lung, 31.8 µM; in the test with OVCAR-4 ovarian it was 29.7 µM. Also, the TGI in the test on RPMI-8226 leukemia is 24.4 µM; in the test on SR leukemia, 26.2 µM; with TK-10 renal, 25 µM; with UO-31 renal, 27.6 µM.
As for `O=c1[nH]c(=O)n(C2OC(CO)C(O)C(F)C2O)cc1F` (stereo not given), the TGI in the test on CAKI-1 renal, in the test on COLO 205 colon, in the test with K-562 leukemia, in the test with MDA-MB-231 breast, with NCI-H226 lung and in the test with OVCAR-4 ovarian was over 100 µM each time. Further, the TGI is over 100 µM with RPMI-8226 leukemia, 76.4 µM in the test on SR leukemia, over 100 µM in the test on TK-10 renal and over 100 µM with UO-31 renal.
